One test deals with ciliary muscle. Description: Luciferase expression in aqueous humor after transfection of the ciliary muscle with naked pGLuc (Example 5). Conditions: for Luciferase (cps) Mean ± sem, level of expression in aqueous humor: pre-treatment 20 mg/ml (10 μl) 45 min before 15 μg pGLuc, day 7, background 99.3 ± 1.5, water 103.5 ± 3.2. It is filed as in vivo, rat. How it is done:
FIG. 6: Illustrates the intracellular delivery of naked plasmids to a smooth muscle, the ciliary muscle, and subsequent gene expression in ocular media. Intramuscular pre-injection of triamcinolone acetonide (TA) or anecortave acetate (AA) at 20 mg/ml (10 μl) was carried out 45 min before intramuscular injection of the naked plasmid pGLuc (15 μg in 10 μl in NaCl 0.45%). No transfection or water instead of corticosteroid was used as control. Luminescence is expressed in counts/s (cps). The results are expressed as the mean±sem of 4 to 6 independent experiments.
To reach the ciliary muscle located below the sclera posterior to the limbus, the intra ciliary muscle injection was carried out through a tunneled corneal incision. When the needle had crossed the limbus, it was inserted slightly deeper for a distance of 1 mm and the solutions were injected.
Rats receiving injection of pGLuc in the ciliary muscle were sacrificed on day 7 after treatment. Intraocular fluids were collected on enucleated eyes, clarified by centrifugation and the supernatants stored at −20° C. until tested.
(§1) The luciferase activity was assessed on 10 μl of sample (tissue lysate supernatant or ocular fluid) placed in a white 96 wells plate.
(§2) The detector was a Wallac Victor luminometer (EG&G Wallac, Evry, France) which adds 50 μl of luciferase assay substrate or Gaussia luciferase assay substrate (Promega) to the sample (tissue lysate supernatant or ocular fluid respectively) and integrates the light produced by the sample during 10 s. Results are given for the whole sample in counts per second (cps) or in cps/ml/mg of protein.
Fifteen μg of naked pGLuc in 10 μl in NaCl 0.45% was injected in the ciliary muscle of one eye of anaesthetized rats (the contra lateral eye was used as control).
The plasmid injection was preceded 45 min before by intramuscular injection of 10 μl of triamcinolone acetonide (TA, 20 mg/ml) or anecortave acetate (AA, 20 mg/ml), a synthetic corticosteroid.
No injection and pre-injection with water were performed as controls.

In a further test the test system is tibialis anterior muscle. The test is described as follows: Luciferase expression in tibialis anterior muscle after injection of naked pVAX2-Luc (Example 6). The settings on record: water control 6.749. The test is classed as in vivo, mouse.
The subject of the next test is RPE-choroid complex. Description: IVT injection of naked pVAX2-Luc followed by gas injection and/or ET, luciferase in RPE-choroid complex (Example 1). The test is classed as in vivo, rat. Conditions: IVT pre-injection 30 min before plasmid, Indocyanin Green 2.5 mg/ml, Polysorbate 80 0.2 mg/ml. Here is the method: (§3) FIG. 2: Illustrates the intracellular delivery of naked plasmids and gene expression in the neuroretina (FIG. 2A) and the RPE-choroid complex (FIG. 2B) of IVT pre-injection of 10 μl of the corticosteroid pharmaceutical specialty KENACORT® at 20 mg/ml (triamcinolone acetonide (TA) as active agent and polysorbate 80 as excipient), Indocyanine Green at 2.5 mg/ml or Polysorbate 80 at 0.2 mg/ml 30 min before IVT injection of the plasmid pVAX2-Luc (30 μg in 10 μl in NaCl 0.45%), followed by gas injection or ET application [8×(80V; 20 ms; 5 Hz)] or combination of both immediately upon IVT injection of the plasmid. Luminescence is expressed in counts/s (cps). The results are expressed as the mean±sem of 4 independent experiments.
Rats receiving intravitreal injection of pVAX2-luc were sacrificed on day 7 after treatment. The eyes were enucleated and dissected under an operating microscope, the neuroretina and RPE/choroid complex removed, snap frozen in liquid nitrogen and kept at −80° C. until tested.
Tissue samples were then homogenized in 0.3 ml (rat neuroretina and RPE/choroid complex) or 1.0 ml (mouse tibialis anterior muscle) of cell culture lysis reagent (Promega, Charbonniere, France) supplemented with protease inhibitor cocktail (Boehringer, Mannheim, Germany) (one tablet for 50 ml). After centrifugation 10 min at 15 000 g and 4° C., tissue lysate supernatant was collected.
as §1, §2
The effect of various chemical agents on the RPE-choroid complex gases injection or electrotransfer-induced intracellular delivery of the naked plasmid pVAX2-Luc and gene expression of the luciferase in neuroretina was evaluated.
Thirty μg of naked pVAX2-Luc in 10 μl in NaCl 0.45% was injected intravitreously in one eye of anaesthetized rats (the contra lateral eye was used as control) immediately followed by gas injection (C2F6 or SF6) or ET application [8×(80V; 20 ms; 5 Hz)] or combination of both. […]
(§4) 7 days after the treatment the animals were sacrificed, the eyes were enucleated and dissected under an optical microscope to isolate the neuroretina and the RPE-choroid complex and the luminescence of the luciferase was measured.

For the next test, the system named is neuroretina. The test is described as follows: IVT injection of naked pVAX2-Luc followed by gas injection and/or ET, luciferase in neuroretina (Example 1). Conditions: IVT pre-injection 30 min before plasmid, Indocyanin Green 2.5 mg/ml, Polysorbate 80 0.2 mg/ml. The test is classed as in vivo, rat. Here is the method: as §3, with “experiments. […]” for “experiments.”
The luciferase activity was assessed on 10 μl of sample (tissue lysate supernatant or ocular fluid) placed in a white 96 wells plate. […]
The effect of various chemical agents on the RPE-choroid complex gases injection or electrotransfer-induced intracellular delivery of the naked plasmid pVAX2-Luc and gene expression of the luciferase in neuroretina was evaluated. […]
as §4

Setting [1] is: pre-treatment 2 mg/ml (30 μl) 30 min before plasmid.
Where [2] appears, read: pre-treatment 20 mg/ml (30 μl) 30 min before plasmid.

We go through five compounds from patent publication US9315829B2, “Methods for intracellular delivery of nucleic acids” (UNIVERSITE PARIS DESCARTES, priority 2010, dated 2016).

Method for tibialis anterior muscle: Luminescence is expressed in counts/s/ml/mg of protein (cps/ml/mg). The results are expressed as the mean±sem of 3 independent experiments. […] Intramuscular injection in the mouse tibialis anterior muscle was carried out with a 30 G needle on a 300 μl microfine syringe (BD Biosiences). Mouse receiving injection of pVAX2-luc in the tibialis anterior muscle were sacrificed on day 7 after treatment. The tibialis anterior muscle was removed, snap frozen in liquid nitrogen and kept at −80° C. until tested. Tissue samples were then homogenized in 0.3 ml (rat neuroretina and RPE/choroid complex) or 1.0 ml (mouse tibialis anterior muscle) of cell culture lysis reagent (Promega, Charbonniere, France) supplemented with protease inhibitor cocktail (Boehringer, Mannheim, Germany) (one tablet for 50 ml). After centrifugation 10 min at 15 000 g and 4° C., tissue lysate supernatant was collected. The luciferase activity was assessed on 10 μl of sample (tissue lysate supernatant or ocular fluid) placed in a white 96 wells plate. The detector was a Wallac Victor luminometer (EG&G Wallac, Evry, France) which adds 50 μl of luciferase assay substrate or Gaussia luciferase assay substrate (Promega) to the sample (tissue lysate supernatant or ocular fluid respectively) and integrates the light produced by the sample during 10 s. Results are given for the whole sample in counts per second (cps) or in cps/ml/mg of protein. One hundred μg of pVAX1-LacZ or thirty μg of naked pVAX2-Luc in 100 or 30 μl in NaCl 0.45% were, respectively, injected into the tibialis anterior muscle of rats or into the tibialis anterior muscle of mice. In the mice, the plasmid injection was preceded 30 min before by intramuscular injection of 30 μl of triamcinolone acetonide (TA) or dexamethasone (DEX) at 2 or 20 mg/ml, or soluble DEX at 4 mg/ml. Pre-injection with water was performed as control.

Regarding `CC(=O)OCC(=O)[C@@]1(O)CC[C@H]2[C@@H]3CCC4=CC(=O)CC[C@]4(C)C3=CC[C@@]21C` [AA, anecortave acetate], in the test with ciliary muscle (pre-injection 20 mg/ml (10 μl) 45 min before 15 μg pGLuc), the “level of expression of Luciferase in the aqueous humor compared to naked plasmid alone” value is given as “dramatically improve”. Also, in the test on ciliary muscle, the “Luciferase (cps) Mean ± sem, level of expression in aqueous humor” value came to 122.5 ± 7.2 cps.
Take `C[C@@H]1C[C@H]2[C@@H]3CCC4=CC(=O)C=C[C@]4(C)[C@@]3(F)[C@@H](O)C[C@]2(C)[C@@]1(O)C(=O)CO` [DEX, dexamethasone]: the “Luciferase (cps) means (10^6)” value in the test with tibialis anterior muscle (setting [1]) is reported as 8.526 10^6 cps; with tibialis anterior muscle (setting [2]), 30.13 10^6 cps.
Take `CC1(C)C(/C=C/C=C/C=C/C=C2\N(CCCCS(=O)(=O)O)c3ccc4ccccc4c3C2(C)C)=[N+](CCCCS(=O)(=O)[O-])c2ccc3ccccc3c21` [Indocyanin Green, indocyanine green]: in the test with RPE-choroid complex, the “improvement of the efficacy of gases injection, by contrast with KENACORT” value is recorded as “less efficient” and the “improvement of the efficiency of ET” value is recorded as “improved, in a certain extent”. The “efficiency in improving transfection, by contrast with KENACORT” value in the test on neuroretina is “less efficient”.
With `CC1(C)O[C@@H]2C[C@H]3[C@@H]4CCC5=CC(=O)C=C[C@]5(C)[C@@]4(F)[C@@H](O)C[C@]3(C)[C@]2(C(=O)CO)O1` [TA, triamcinolone acetonide], the “Luciferase (cps) Mean ± sem, level of expression in aqueous humor” value with ciliary muscle is listed as 122.3 ± 6.8 cps. Besides, the results for the “Luciferase (cps) means (10^6)” value in the test on tibialis anterior muscle (setting [1]) and with tibialis anterior muscle (setting [2]) were 6.849 10^6 cps and 6.431 10^6 cps, respectively.
Regarding polysorbate 80, in the test with RPE-choroid complex, the “improvement of the efficacy of gases injection, by contrast with KENACORT” value was “less efficient” and the “improvement of the efficiency of ET” value is “improved, in a certain extent”. In addition, the “efficiency in improving transfection, by contrast with KENACORT” value with neuroretina is given as “less efficient”.
